Converted amounts (≈) assume the structure as drawn. Where two headings read alike, the source gives them in different places.
Assays:
Staphylococcus aureus = assay: Antibacterial efficacy in mouse model of Staphylococcus aureus systemic infection (peritonitis model); format: in vivo, Swiss Webster mice; settings: for effect on survival in a mouse model of Staphylococcus aureus infection (in words): summary of Tables 4a-4c
Method: (§1) Female Swiss Webster mice were experimentally infected by intraperitoneal administration of 5×10^7 colony forming units of Staphylococcus aureus in 10% hog gastric mucin. Test compounds (2-3 mg/ml in vehicle [9-19% dimethyacetamide/8-16% Cremophor EL in water, v/v]), positive controls (2 mg/ml vancomycin in vehicle), and negative controls (vehicle only and saline only), were administered by intravenous injection into a tail vein 1 h and 5 h post-infection (200 μl per injection). Survival was monitored for 12 h post-infection, or for 24, 48, and 72 h post-infection. At the end of the monitoring period, surviving animals were euthanized.

[1] = Tolerability upon intravenous injection (peritonitis model study); format: in vivo, Swiss Webster mice; settings: daily total doses of at least 30 mg/kg; vehicles containing 9% to 19% dimethylacetamide and 8% to 16% Cremophor EL
Method: as §1

S. aureus RNA polymerase = S. aureus RNA polymerase (Staphylococcus aureus, UniProt P47768+Q2G0N5); assay: Inhibition of Staphylococcus aureus RNA polymerase (fluorescence-detected); format: biochemical
[2] = molecular target: M. tuberculosis RNA polymerase (Mycobacterium tuberculosis, UniProt P9WGY7+P9WGY9); assay: Inhibition of Mycobacterium tuberculosis RNA polymerase (fluorescence-detected); format: biochemical
Method: (§2) Fluorescence-detected RNA polymerase assays with E. coli RNA polymerase were performed by a modification of the procedure of Kuhlman et al., 2004 [Kuhlman, P., Duff, H. & Galant, A. (2004) A fluorescence-based assay for multisubunit DNA-dependent RNA polymerases. Anal. Biochem. 324, 183-190]. Reaction mixtures contained (20 μl): 0-100 nM test compound, 75 nM E. coli RNA polymerase σ^70 holoenzyme, 20 nM 384 bp DNA fragment containing the bacteriophage T4 N25 promoter, 100 μM ATP, 100 μM GTP, 100 μM UTP, 100 μM CTP, 50 mM Tris-HCl, pH 8.0, 100 mM KCl, 10 mM MgCl2, 1 mM DTT, 10 μg/ml bovine serum albumin, and 5.5% glycerol. Reaction components other than DNA and NTPs were pre-incubated for 10 min at 37° C. Reactions were carried out by addition of DNA and incubation for 5 min at 37° C., followed by addition of NTPs and incubation for 60 min at 37° C. DNA was removed by addition of 1 μl 5 mM CaCl2 and 2 U DNaseI (Ambion, Inc.), followed by incubation for 90 min at 37° C. RNA was quantified by addition of 100 μl RiboGreen RNA Quantitation Reagent (Invitrogen, Inc.; 1:500 dilution in Tris-HCl, pH 8.0, 1 mM EDTA), followed by incubation for 10 min at 25° C., followed by measurement of fluorescence intensity [excitation wavelength=485 nm and emission wavelength=535 nm; QuantaMaster QM1 spectrofluorometer (PTI, Inc.)].
Fluorescence-detected RNA polymerase assays with M. tuberculosis RNA polymerase were performed as in Example 17.1, using reaction mixtures containing (20 μl): 0-100 nM test compound, 75 nM M. tuberculosis RNA polymerase core enzyme, 300 nM M. tuberculosis σ^A, 20 nM 384 bp DNA fragment containing the bacteriophage […] N25 promoter, 100 μM ATP, 100 μM GTP, 100 μM UTP, 100 μM CTP, 40 mM Tris-HCl, pH 8.0, 80 mM NaCl, 5 mM MgCl2, 2.5 mM DTT, and 12.7% glycerol.

[3] = molecular target: E. coli RNA polymerase σ^70 holoenzyme (Escherichia coli, UniProt P0A8T7+P0A8V2); assay: Inhibition of Escherichia coli RNA polymerase (fluorescence-detected); format: biochemical; settings: read-out: IC50 E. coli RNAP
Method: as §2

[4] = system: Escherichia coli D21f2tolC; assay: Inhibition of bacterial growth in culture (MIC, spiral gradient endpoint); format: cell-based; settings: 16 h, read-out: MIC E. coli D21f2tolC
From the text: (§3) Minimum inhibitory concentrations (MICs) for Staphylococcus aureus ATCC 12600, Enterococcus faecalis ATCC 19433, Acinetobacter baumannii ATCC 19606, and Escherichia coli D21f2tolC were quantified using spiral gradient endpoint assays, essentially as described [Wallace, A. and Corkill, J. (1989) Application of the spiral plating method to study antimicrobial action. J. Microbiol. Meths. […] Int. J. Exp. Clin. Chemother. 3, 31-38; Schalkowsky S. (1994) Measures of susceptibility from a spiral gradient of drug concentrations. Adv. Exp. Med. Biol. 349, 107-120]. Assays employed exponential-gradient plates containing 150 mm×4 mm Mueller-Hinton II cation-adjusted agar and 0.4-100 μg/ml of test compound. Plates were prepared using an Autoplate 4000 spiral plater (Spiral Biotech, Inc.). Saturated overnight cultures were swabbed radially onto plates, and plates were incubated for 16 h at 37° C. For each culture, the streak length was measured using a clear plastic template (Spiral Biotech, Inc.), the test-compound concentration at the streak endpoint was calculated using the program SGE (Spiral Biotech, Inc.), and the MIC was defined as the calculated test-compound concentration at the streak endpoint.

[5] = system: Enterococcus faecalis ATCC 19433; assay: as above; format: cell-based; settings: for MIC: Enterococcus faecalis, ATCC19433, Mueller-Hinton II agar, 16 h at 37° C., read-out: MIC E. faecalis 19433
From the text: as §3

[6] = system: Staphylococcus aureus ATCC 12600; assay: as above; format: cell-based; settings: for MIC: Staphylococcus aureus, ATCC12600, Mueller-Hinton II agar, 16 h at 37° C., read-out: MIC S. aureus 12600
From the text: as §3

[7] = system: Acinetobacter baumannii ATCC 19606; assay: as above; format: cell-based; settings: for MIC: Acinetobacter baumannii, ATCC19606, Mueller-Hinton II agar, 16 h at 37° C.
From the text: as §3

[8] = Table 4c, total dose 50 mg/kg iv, vehicle 9% dimethylacetamide/8% Cremophor EL/83% water

Chain of E. coli RNA polymerase σ^70 holoenzyme (P0A8V2 whole entry): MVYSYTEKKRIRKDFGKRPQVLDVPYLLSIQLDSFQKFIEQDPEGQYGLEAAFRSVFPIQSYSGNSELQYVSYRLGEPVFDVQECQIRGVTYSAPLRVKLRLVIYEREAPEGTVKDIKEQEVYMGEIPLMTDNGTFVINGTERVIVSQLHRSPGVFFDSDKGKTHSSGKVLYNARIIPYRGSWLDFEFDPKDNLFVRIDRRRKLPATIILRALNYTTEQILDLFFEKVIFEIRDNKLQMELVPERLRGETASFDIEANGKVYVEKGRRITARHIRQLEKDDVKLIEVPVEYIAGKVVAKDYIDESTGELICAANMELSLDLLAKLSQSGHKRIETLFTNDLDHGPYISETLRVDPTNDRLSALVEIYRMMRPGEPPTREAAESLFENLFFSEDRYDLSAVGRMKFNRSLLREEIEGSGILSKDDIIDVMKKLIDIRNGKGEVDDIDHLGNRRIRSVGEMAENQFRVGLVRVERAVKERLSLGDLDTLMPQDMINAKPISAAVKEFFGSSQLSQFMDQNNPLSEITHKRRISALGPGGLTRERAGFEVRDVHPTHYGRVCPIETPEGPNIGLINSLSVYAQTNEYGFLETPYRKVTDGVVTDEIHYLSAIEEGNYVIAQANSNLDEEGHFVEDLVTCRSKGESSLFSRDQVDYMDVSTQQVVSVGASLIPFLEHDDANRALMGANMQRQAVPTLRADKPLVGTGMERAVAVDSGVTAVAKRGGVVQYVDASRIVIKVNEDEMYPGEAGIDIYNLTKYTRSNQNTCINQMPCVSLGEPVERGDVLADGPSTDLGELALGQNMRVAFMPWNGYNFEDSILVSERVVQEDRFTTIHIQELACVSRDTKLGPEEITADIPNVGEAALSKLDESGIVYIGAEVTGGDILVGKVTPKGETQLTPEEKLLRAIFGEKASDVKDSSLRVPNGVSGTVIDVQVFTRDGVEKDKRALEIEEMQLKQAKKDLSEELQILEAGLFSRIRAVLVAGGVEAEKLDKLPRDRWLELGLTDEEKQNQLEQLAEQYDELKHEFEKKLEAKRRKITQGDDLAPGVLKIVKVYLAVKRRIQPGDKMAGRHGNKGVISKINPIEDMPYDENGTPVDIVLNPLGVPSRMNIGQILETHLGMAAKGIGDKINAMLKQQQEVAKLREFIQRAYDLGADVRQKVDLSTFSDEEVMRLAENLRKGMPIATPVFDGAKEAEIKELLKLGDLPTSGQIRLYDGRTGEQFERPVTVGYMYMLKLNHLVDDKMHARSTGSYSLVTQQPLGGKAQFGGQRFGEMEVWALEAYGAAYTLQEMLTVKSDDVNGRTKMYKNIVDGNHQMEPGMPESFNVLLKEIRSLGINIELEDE
Chain of E. coli RNA polymerase σ^70 holoenzyme (P0A8T7 whole entry): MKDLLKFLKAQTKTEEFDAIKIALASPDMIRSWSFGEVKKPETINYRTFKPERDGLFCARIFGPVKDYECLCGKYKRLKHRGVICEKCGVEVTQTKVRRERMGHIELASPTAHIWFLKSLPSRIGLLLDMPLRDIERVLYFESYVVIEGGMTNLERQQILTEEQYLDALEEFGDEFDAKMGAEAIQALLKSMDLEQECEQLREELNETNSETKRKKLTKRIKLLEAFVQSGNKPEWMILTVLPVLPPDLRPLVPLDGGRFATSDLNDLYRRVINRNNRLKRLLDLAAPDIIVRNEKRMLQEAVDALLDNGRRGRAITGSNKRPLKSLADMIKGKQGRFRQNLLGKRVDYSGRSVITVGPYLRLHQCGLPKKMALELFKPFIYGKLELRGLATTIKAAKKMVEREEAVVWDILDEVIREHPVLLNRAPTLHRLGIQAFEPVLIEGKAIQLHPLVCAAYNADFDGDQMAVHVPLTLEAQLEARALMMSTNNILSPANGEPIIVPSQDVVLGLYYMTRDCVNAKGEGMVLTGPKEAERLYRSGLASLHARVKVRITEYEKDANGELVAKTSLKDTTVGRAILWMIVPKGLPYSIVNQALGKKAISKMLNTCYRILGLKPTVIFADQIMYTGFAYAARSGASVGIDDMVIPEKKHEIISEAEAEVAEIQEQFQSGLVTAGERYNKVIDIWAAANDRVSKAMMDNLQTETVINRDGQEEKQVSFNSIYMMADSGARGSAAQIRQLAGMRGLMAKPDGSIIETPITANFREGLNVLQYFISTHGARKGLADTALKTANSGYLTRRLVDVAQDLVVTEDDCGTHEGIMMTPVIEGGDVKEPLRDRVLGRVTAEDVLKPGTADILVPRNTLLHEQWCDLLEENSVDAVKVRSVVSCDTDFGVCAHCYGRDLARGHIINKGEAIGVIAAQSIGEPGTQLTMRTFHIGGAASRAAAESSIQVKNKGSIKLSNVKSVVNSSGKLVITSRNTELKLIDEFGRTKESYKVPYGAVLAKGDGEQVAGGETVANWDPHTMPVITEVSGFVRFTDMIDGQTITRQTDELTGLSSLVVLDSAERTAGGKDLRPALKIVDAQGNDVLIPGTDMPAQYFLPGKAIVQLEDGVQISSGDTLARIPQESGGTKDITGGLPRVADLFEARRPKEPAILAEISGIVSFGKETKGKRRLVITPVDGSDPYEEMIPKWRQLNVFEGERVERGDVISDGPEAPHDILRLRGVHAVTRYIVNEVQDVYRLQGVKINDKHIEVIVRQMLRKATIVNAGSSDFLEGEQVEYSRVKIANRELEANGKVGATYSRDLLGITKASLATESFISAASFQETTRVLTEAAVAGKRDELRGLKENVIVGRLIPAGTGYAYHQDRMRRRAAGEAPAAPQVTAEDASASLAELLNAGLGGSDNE
Chain of E. coli RNA polymerase σ^70 holoenzyme (P0A7Z4 whole entry partner): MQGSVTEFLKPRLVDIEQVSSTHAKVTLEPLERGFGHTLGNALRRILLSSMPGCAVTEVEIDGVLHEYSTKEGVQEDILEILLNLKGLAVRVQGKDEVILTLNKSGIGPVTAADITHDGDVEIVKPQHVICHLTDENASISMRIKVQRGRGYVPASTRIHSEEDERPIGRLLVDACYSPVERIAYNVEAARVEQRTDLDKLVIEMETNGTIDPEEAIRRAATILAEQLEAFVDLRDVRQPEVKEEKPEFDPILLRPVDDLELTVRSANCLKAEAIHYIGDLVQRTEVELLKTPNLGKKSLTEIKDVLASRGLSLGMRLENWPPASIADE
Chain of E. coli RNA polymerase σ^70 holoenzyme (P0A800 whole entry partner): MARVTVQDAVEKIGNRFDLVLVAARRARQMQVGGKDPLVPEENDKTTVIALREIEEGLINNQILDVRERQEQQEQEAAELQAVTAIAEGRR
Chain of E. coli RNA polymerase σ^70 holoenzyme (P00579 whole entry partner): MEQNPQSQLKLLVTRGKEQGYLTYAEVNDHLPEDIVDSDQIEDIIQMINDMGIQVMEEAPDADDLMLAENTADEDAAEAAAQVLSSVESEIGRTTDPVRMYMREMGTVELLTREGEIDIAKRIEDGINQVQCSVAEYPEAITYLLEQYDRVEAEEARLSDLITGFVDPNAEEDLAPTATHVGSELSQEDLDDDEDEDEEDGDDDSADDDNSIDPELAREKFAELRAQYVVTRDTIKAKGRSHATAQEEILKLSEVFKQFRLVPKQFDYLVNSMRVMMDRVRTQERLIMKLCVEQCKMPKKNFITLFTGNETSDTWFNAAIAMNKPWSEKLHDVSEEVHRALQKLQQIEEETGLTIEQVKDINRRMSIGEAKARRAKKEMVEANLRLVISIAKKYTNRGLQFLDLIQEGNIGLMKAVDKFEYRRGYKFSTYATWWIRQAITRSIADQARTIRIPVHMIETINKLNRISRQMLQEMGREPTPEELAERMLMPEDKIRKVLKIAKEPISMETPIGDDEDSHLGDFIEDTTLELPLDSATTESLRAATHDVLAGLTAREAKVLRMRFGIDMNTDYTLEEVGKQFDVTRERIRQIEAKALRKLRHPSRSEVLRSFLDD

Row | SMILES | 12-hour survival (Staphylococcus aureus; Table 4b, total dose 50 mg/kg iv, vehicle 19% dimethylacetamide/16% Cremophor EL/73% water) [%] | 24-hour survival (Staphylococcus aureus; [8]) [%] | 48-hour survival (Staphylococcus aureus; [8]) [%] | 72-hour survival (Staphylococcus aureus; [8]) [%] | effect on survival in a mouse model of Staphylococcus aureus infection (in words) (Staphylococcus aureus) | acute toxicity upon intravenous injection [1] | IC50 (S. aureus RNA polymerase) [nM] | IC50 [2] [nM] | IC50 [3] [nM] | MIC [4] [µg/mL] | MIC [5] [µg/mL] | MIC [6] [µg/mL] | MIC [7] [µg/mL] | inhibition of Acinetobacter baumannii (in words) ([7]; summary of Table 3) | 12-hour survival (Staphylococcus aureus; Table 4a, total dose 30 mg/kg iv, 1 h and 5 h post-infection, vehicle 19% dimethylacetamide/8% Cremophor EL/73% water) [%] | IC50 (S. aureus RNA polymerase; read-out: IC50 S. aureus RNAP) [nM] | IC50 ([2]; read-out: IC50 M. tuberculosis RNAP) [nM] | inhibition of Enterococcus faecalis compared with Myx B and 7-desmethyl-Myx B ([5]; summary of Table 3) | inhibition of Staphylococcus aureus compared with Myx B and 7-desmethyl-Myx B ([6]; summary of Table 3)
1 | CCCC/C(C)=C/C=C(\C)C(=O)c1c(O)cc(C(C)CC/C=C/NC(=O)OC)oc1=O (centres unmarked) [Myx B, Methyl ((E)-5-(3-((2E,4E)-2,5-dimethylnona-2,4-dienoyl)-4-hydroxy-2-oxo-2H-pyran-6-yl)hex-1-en-1-yl)carbamate, reference compound] | 50 | 75 | 50 | 50 | increase survival | tolerated without acute toxicity | 66 | 130 | 13 | 0.098 (≈ 0.227 µM) | 13 (≈ 30.1 µM) | 0.78 (≈ 1.81 µM) | > 40 | not detectably inhibited | – | – | – | – | –
2 | CCCCC/C(C)=C/C=C(\C)C(=O)c1c(O)cc(CCC/C=C/NC(=O)OC)oc1=O [compound 5, Methyl ((E)-5-(3-((2E,4E)-2,5-dimethyldeca-2,4-dienoyl)-4-hydroxy-2-oxo-2H-pyran-6-yl)pent-1-en-1-yl)carbamate] | – | – | – | – | increase survival | tolerated without acute toxicity | – | – | 3.9 | 0.076 (≈ 0.176 µM) | 12 (≈ 27.8 µM) | 0.44 (≈ 1.02 µM) | 19 (≈ 44 µM) | – | 100 | 15 | 32 | more potently than Myx B and 7-desmethyl-Myx B | more potently than Myx B and 7-desmethyl-Myx B
